Experiment [1] has as its target T1, rat mGluR1a (Rattus norvegicus, UniProt P23385). To be noted: 500 nM compound, absence of glutamate.
A further experiment addresses mGluR1a (Rattus norvegicus, UniProt P23385). The experiment can be described thus: ERK1/2 phosphorylation assay. Conditions: for P-ERK1/2 response as % of the response to a maximal concentration of glutamate: 1 µM PAM, no exogenously added agonist.
Experiment [2] deals with T1, rat mGluR1a. The experiment can be described thus: Calcium mobilization. It counts as cell-based. To be noted: fixed 1 µM compound, 10 min pre-incubation. (In general: Calcium flux is commonly read through the fluorescence of an indicator in the cells.)
The target in experiment [3] is T2, rat mGlu1a receptor (Rattus norvegicus, UniProt P23385). The experiment can be described thus: biochemical.
Experiment [4] addresses T2, rat mGlu1a receptor. To be noted: saturation binding, BHK-mGluR1a membranes.

The structures appear in SMILES notation.

Chain of mGluR1a (P23385 19-1199): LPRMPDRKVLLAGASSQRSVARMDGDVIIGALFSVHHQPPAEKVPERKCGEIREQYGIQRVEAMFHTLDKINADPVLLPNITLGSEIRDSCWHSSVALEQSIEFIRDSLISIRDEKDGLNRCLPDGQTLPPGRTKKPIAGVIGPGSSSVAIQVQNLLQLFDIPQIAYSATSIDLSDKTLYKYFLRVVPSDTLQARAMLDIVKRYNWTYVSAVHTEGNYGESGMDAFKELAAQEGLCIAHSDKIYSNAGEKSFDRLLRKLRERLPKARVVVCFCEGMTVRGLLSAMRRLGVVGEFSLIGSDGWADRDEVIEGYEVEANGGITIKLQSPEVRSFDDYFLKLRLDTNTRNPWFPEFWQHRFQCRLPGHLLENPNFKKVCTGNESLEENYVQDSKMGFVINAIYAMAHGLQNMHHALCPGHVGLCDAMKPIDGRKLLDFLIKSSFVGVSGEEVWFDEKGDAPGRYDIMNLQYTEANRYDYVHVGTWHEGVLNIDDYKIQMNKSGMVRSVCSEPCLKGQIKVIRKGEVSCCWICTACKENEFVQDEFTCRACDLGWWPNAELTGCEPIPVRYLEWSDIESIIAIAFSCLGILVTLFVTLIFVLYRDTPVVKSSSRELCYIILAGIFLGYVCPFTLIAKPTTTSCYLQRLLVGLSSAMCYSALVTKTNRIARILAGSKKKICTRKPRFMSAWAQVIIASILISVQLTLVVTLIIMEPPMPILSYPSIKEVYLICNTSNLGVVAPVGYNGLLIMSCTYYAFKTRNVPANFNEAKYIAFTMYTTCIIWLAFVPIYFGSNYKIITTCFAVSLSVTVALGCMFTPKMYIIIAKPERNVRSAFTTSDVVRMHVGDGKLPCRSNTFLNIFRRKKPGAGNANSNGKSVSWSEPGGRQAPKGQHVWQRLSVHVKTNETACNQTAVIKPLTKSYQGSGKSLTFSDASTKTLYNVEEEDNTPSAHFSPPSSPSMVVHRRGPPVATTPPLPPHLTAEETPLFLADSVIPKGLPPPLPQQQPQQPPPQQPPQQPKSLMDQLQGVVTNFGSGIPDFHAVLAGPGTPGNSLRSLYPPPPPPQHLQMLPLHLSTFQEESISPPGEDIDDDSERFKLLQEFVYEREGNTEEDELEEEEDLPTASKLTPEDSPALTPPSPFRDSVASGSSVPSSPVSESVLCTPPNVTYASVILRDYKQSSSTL
T1 sequence (P23385 19-1199): as above
T2 sequence (P23385 19-1199): as above

A word on the EC50: it is the concentration needed to bring the measured effect to its halfway point. The low end stands for an effect from little substance, the high end for a need for much substance. Regarding `CCCCOC(=O)NC(=O)C1c2ccccc2Oc2ccccc21` [Ro 67-4853, butyl (9H-xanthene-9-carbonyl)carbamate], the “increase of basal cAMP accumulation” value at rat mGluR1a [1] is listed as 30%. On mGluR1a, the EC50 came out at 9.2 ± 6.2 nM and the “P-ERK1/2 response as % of the response to a maximal concentration of glutamate” value (shortened to “P-ERK1/2 response as % of the response”) worked out at 114.4 ± 29.0%. Besides, the “leftward shift of the glutamate concentration-response curve (calcium)” value (“leftward shift … (calcium)” below) at rat mGluR1a [2] was approximately 15 fold.

A word on the Kd: it is the equilibrium constant for the complex coming apart. Lower therefore signals higher affinity. In the case of `O=C(Cc1ccccc1)c1ccc2nc3c(cc2c1)CCCO3` [R214127, 1-(3,4-dihydro-2H-pyrano[2,3-b]quinolin-7-yl)-2-phenyl-1-ethanone], on mGluR1a (antagonist alone (100 nM R214127 or 10 µM LY341495)), the “effect on basal ERK1/2 phosphorylation” value is “does not effect basal ERK1/2 phosphorylation”. On rat mGlu1a receptor [3], this compound returned an equilibrium dissociation constant (Kd) of 2.8 ± 0.3 nM. Besides, the Bmax at rat mGlu1a receptor [4] is on record as 3817 ± 226 fmol/mg of protein.

As to `Cc1ccc(S(=O)(=O)N2CCC[C@H]2c2ccc(F)cc2)cc1` (racemic) [Ro 67-7476, (S)-2-(4-fluorophenyl)-1-(toluene-4-sulfonyl)pyrrolidine], the “increase of basal cAMP accumulation” value at rat mGluR1a [1] came to 8%. In addition, at mGluR1a, the half-maximal effective concentration (EC50) came to 163 ± 44.8 nM and the “P-ERK1/2 response as % of the response” value is listed as 120.4 ± 1.9%. Further, the “leftward shift … (calcium)” value at rat mGluR1a [2] was approximately 4.5 fold.

For the compound `CCOC(=O)NC(=O)C(c1ccccc1)c1ccccc1` [Ro 01-6128, ethyl diphenylacetylcarbamate], on rat mGluR1a [1], the “increase of basal cAMP accumulation” value is “approximately 7%”. Further, the “P-ERK1/2 response as % of the response” value at mGluR1a was 119.5 ± 17.3%. Besides, the “leftward shift … (calcium)” value at rat mGluR1a [2] is given as “approximately 2 fold”.

The values above are taken from publication PMC2600811 (Neuropharmacology, 2008).
